Laboratory results from ChEMBL document CHEMBL2163248, “Classification of inhibitors of hepatic organic anion transporting polypeptides (OATPs): influence of protein expression on drug-drug interactions” (J Med Chem, 2012).

Key:
[1] = target: T1, OATP1B1 (Homo sapiens, UniProt Q9Y6L6); assay: (§1) Inhibition of human liver OATP1B1 expressed in HEK293 Flp-In cells assessed as reduction in E17-betaG uptake at 20 uM by scintillation counting
T1 sequence (Q9Y6L6 whole entry): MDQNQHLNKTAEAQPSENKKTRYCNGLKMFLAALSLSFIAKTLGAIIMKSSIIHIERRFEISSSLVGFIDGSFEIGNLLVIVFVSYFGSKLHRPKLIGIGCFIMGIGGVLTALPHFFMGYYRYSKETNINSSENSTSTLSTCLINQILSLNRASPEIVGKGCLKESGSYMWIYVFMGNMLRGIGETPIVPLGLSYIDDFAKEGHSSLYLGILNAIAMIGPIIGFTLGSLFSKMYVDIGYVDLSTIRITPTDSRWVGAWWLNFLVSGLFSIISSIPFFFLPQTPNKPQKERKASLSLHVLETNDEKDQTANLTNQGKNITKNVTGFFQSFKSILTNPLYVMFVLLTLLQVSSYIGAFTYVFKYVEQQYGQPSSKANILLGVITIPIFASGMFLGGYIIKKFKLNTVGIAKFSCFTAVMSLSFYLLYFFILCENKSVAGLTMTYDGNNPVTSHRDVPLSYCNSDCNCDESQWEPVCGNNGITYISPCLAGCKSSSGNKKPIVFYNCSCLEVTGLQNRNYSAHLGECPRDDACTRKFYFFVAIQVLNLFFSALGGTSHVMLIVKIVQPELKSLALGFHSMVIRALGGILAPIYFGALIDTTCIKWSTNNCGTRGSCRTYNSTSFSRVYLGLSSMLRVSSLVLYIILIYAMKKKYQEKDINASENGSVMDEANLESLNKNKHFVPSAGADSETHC

[2] = target: T2, Solute carrier organic anion transporter family member 1B3 (Homo sapiens, UniProt Q9NPD5); assay: Inhibition of human liver OATP1B3 expressed in HEK293 Flp-In cells assessed as reduction in [3H]E17-betaG uptake at 20 uM incubated for 5 mins by scintillation counting; conditions: hek293, 5 min
T2 sequence (Q9NPD5 whole entry): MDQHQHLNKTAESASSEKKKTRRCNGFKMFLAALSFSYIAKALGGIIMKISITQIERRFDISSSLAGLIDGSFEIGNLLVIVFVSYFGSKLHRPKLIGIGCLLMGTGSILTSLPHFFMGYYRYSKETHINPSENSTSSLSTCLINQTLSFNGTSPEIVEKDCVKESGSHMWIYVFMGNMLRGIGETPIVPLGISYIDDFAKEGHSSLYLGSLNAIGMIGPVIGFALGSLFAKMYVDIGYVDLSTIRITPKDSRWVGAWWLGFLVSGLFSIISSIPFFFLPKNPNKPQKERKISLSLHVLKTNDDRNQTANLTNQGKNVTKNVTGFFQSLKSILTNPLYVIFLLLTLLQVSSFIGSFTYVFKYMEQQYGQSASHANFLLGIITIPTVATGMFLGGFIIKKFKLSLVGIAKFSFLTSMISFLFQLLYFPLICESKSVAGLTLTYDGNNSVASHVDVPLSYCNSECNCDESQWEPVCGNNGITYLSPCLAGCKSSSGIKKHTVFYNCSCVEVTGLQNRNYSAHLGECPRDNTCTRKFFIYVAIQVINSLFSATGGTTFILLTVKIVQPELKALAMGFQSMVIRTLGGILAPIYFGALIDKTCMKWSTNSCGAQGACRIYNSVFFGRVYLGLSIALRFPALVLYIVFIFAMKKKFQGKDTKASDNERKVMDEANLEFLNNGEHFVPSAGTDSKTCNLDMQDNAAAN

[3] = target: T3, Solute carrier organic anion transporter family member 2B1 (Homo sapiens, UniProt O94956); assay: Inhibition of human liver OATP2B1 expressed in HEK293 Flp-In cells assessed as reduction in [3H]E3S uptake at 20 uM incubated for 5 mins by scintillation counting; conditions: hek293, 5 min
T3 sequence (O94956 whole entry): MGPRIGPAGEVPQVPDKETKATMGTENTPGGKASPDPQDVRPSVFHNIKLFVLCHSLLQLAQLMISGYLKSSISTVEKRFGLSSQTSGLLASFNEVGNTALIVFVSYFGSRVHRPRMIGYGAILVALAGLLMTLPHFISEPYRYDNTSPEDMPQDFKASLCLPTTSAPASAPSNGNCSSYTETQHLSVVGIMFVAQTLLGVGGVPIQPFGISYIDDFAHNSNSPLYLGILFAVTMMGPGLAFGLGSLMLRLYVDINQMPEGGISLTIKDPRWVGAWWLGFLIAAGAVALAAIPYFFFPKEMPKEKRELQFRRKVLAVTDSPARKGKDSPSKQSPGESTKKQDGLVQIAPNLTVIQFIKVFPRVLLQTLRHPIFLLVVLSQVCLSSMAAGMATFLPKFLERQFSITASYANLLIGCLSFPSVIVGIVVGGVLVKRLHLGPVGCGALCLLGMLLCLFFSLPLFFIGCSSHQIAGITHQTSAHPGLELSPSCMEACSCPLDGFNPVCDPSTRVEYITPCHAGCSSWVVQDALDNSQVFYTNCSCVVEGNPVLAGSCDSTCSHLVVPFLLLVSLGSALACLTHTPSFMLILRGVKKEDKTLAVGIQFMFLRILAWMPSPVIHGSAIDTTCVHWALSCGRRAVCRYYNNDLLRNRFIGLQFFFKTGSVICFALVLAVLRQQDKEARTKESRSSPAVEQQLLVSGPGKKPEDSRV

[4] = target: T4, Solute carrier organic anion transporter family member 1B1 (Homo sapiens, UniProt Q9Y6L6); assay: Inhibition of human liver OATP1B1 expressed in HEK293 Flp-In cells assessed as reduction in E17-betaG uptake by scintillation counting; type: ADME, cell-based
T4 sequence (Q9Y6L6 whole entry): T1 sequence (Q9Y6L6 whole entry)

[5] = target: T4, Solute carrier organic anion transporter family member 1B1; assay: as §1; conditions: hek293, 20 µM
[6] = target: T3, Solute carrier organic anion transporter family member 2B1; assay: Inhibition of human liver OATP2B1 expressed in HEK293 Flp-In cells assessed as reduction in [3H]E3S uptake incubated for 5 mins by scintillation counting; type: ADME, cell-based
[7] = Fraction unbound in plasma; type: ADME, cell-free
[8] = target: T5, OATP1B3 (Homo sapiens, UniProt Q9NPD5); assay: Activity at human liver OATP1B3 expressed in HEK293 Flp-In cells; type: ADME, cell-based; conditions: HEK293 Flp-In cells expressing OATP1B3
T5 sequence (Q9NPD5 whole entry): T2 sequence (Q9NPD5 whole entry)

[9] = target: T2, Solute carrier organic anion transporter family member 1B3; assay: Activity at human liver OATP1B3 expressed in HEK293 Flp-In cells assessed as rate of compound transport per mg of protein; type: ADME, cell-based
[10] = target: T2, Solute carrier organic anion transporter family member 1B3; assay: Ratio of Vmax to Km for human liver OATP1B3 expressed in HEK293 Flp-In cells assessed per mg protein; type: ADME, cell-based
[11] = tested on: OATP1B1 versus OATP1B3; assay: Selectivity index, ratio of IC50 for human liver OATP1B1 to IC50 for OATP1B3; conditions: read-out: Ratio IC50
[12] = target: T2, Solute carrier organic anion transporter family member 1B3; assay: Inhibition of human liver OATP1B3 expressed in HEK293 Flp-In cells assessed as reduction in [3H]E17-betaG uptake incubated for 5 mins by scintillation counting; type: ADME, cell-based
[13] = HEK293 Flp-In cells expressing OATP1B1, probe E17-betaG

## C[n+]1ccccc1
[1]; [13]
  inhibition at 20 µM: 27.9%
[2]
  INH: -2.3%
[3]
  INH: 12.8%

## C[n+]1ccc(-c2ccccc2)cc1
[1]; [13]
  inhibition at 20 µM: 14.2%
[2]
  INH: 10.8%
[3]
  INH: 2.4%

## CCOc1ccc(-c2nc3cc(-c4nc5cc(N6CCN(C)CC6)ccc5[nH]4)ccc3[nH]2)cc1
[1]; hek293
  inhibition at 20 µM: 48.1%
[3]
  INH: 12.7%
[4]
  IC50: 19 µM

## C[n+]1cc2c3c(ccc2c2ccc4cc5c(cc4c21)OCO5)OCO3
[1]; [13]
  inhibition at 20 µM: -0.2%
[2]
  INH: 2.9%
[3]
  INH: 15%

## CC(=O)Oc1ccc2c(c1)Oc1cc(OC(C)=O)ccc1C21OC(=O)c2cc(C(=O)O)ccc21
[1]; [13]
  inhibition at 20 µM: 70.7%
[2]
  INH: 71.1%
[3]
  INH: -24.9%

## N[C@@H]1C[C@H]1c1ccccc1.N[C@H]1C[C@@H]1c1ccccc1 (relative stereo) [TRANYLCYPROMINE]
[1]; hek293
  inhibition at 20 µM: -9.5%
[2]
  INH: -9.3%
[3]
  INH: 15.5%

## Cc1ccc(-c2cc(C(F)(F)F)nn2-c2ccc(S(N)(=O)=O)cc2)cc1 [CELECOXIB]
[1]; hek293
  inhibition at 20 µM: -3.3%
[2]
  INH: 22.3%
[3]
  INH: -69%

## COc1ccc2c(c[n+](C)c3c4cc5c(cc4ccc23)OCO5)c1OC [CHELERYTHRINE]
[1]; [13]
  inhibition at 20 µM: -0.7%
[2]
  INH: 24.9%
[3]
  INH: 13.1%

## CCN(CC)CCCC(C)Nc1ccnc2cc(Cl)ccc12 (configuration not stated) [CHLOROQUINE]
[1]; [13]
  inhibition at 20 µM: -1.4%
[2]
  INH: -7.2%
[3]
  INH: 23.5%

## CC[C@H]1OC(=O)[C@H](C)[C@@H](O[C@H]2C[C@@](C)(OC)[C@@H](O)[C@H](C)O2)[C@H](C)[C@@H](O[C@@H]2O[C@H](C)C[C@H](N(C)C)[C@H]2O)[C@](C)(OC)C[C@@H](C)C(=O)[C@H](C)[C@@H](O)[C@]1(C)O [CLARITHROMYCIN]
[1]; [13]
  inhibition at 20 µM: 73.1%
[2]
  INH: 53.8%
[3]
  INH: 5.1%

## COc1cccc2c1C(=O)c1c(O)c3c(c(O)c1C2=O)C[C@@](O)(C(=O)CO)C[C@@H]3O[C@H]1C[C@H](N)[C@H](O)[C@H](C)O1 [DOXORUBICIN]
[1]; [13]
  inhibition at 20 µM: -5.8%
[2]
  INH: 26.6%
[3]
  INH: 49.9%

## C#Cc1cccc(Nc2ncnc3cc(OCCOC)c(OCCOC)cc23)c1 [ERLOTINIB]
[5]
  INH: 10.6%
[2]
  INH: 27.5%
[3]
  INH: 93.7%
[6]
  IC50: 0.55 µM
[7]
  Cp(f): 400 nM

## C[C@]12CC[C@@H]3c4ccc(O)cc4CC[C@H]3[C@@H]1CC[C@@H]2O[C@@H]1O[C@H](C(=O)O)[C@@H](O)[C@H](O)[C@H]1O [ESTRADIOL 17B GLUCURONIDE]
[8]
  Km: 11.7 µM
[9]
  Vmax: 10.12 pmol/min
[10]
  Vmax/Km: 0.86 µL/min
[1]; [13]
  inhibition at 20 µM: 67.9%
[2]
  INH: 69%
[3]
  INH: -12.2%

## C[C@H](CCC(=O)NCC(=O)O)[C@H]1CC[C@H]2[C@@H]3[C@H](O)C[C@@H]4C[C@H](O)CC[C@]4(C)[C@H]3C[C@H](O)[C@]12C [GLYCOCHOLIC ACID]
[1]; [13]
  inhibition at 20 µM: 66.4%
[2]
  INH: 29%
[3]
  INH: -9.8%

## N[C@@H](Cc1cc(I)c(Oc2cc(I)c(O)c(I)c2)c(I)c1)C(=O)O [LEVOTHYROXINE]
[1]; [13]
  inhibition at 20 µM: -13.1%
[2]
  INH: 11.4%
[3]
  INH: 63.7%

## CC1COc2c(N3CCN(C)CC3)c(F)cc3c(=O)c(C(=O)O)cn1c23 (configuration not stated) [OFLOXACIN]
[1]; [13]
  inhibition at 20 µM: -8.2%
[2]
  INH: 24.5%
[3]
  INH: 18.4%

## CCCc1nc(C(C)(C)O)c(C(=O)OCc2oc(=O)oc2C)n1Cc1ccc(-c2ccccc2-c2nnn[nH]2)cc1 [OLMESARTAN MEDOXOMIL]
[1]; [13]
  inhibition at 20 µM: 60.4%
[3]
  INH: -7.9%

## Cc1nccn1CC1CCc2c(c3ccccc3n2C)C1=O (configuration not stated) [ONDANSETRON]
[1]; [13]
  inhibition at 20 µM: 4.8%
[2]
  INH: -3.6%
[3]
  INH: -8.7%

## S=C=NCCc1ccccc1 [PHENETHYLISOTHIOCYANATE]
[1]; [13]
  inhibition at 20 µM: -16.4%
[2]
  INH: 12.3%
[3]
  INH: -32%

## CC[C@H](C)C(=O)O[C@H]1C[C@H](O)C=C2C=C[C@H](C)[C@H](CC[C@@H](O)C[C@@H](O)CC(=O)O)[C@H]21 [PRAVASTATIN]
[5]
  INH: 52.2%
[2]
  INH: 5.4%
[3]
  INH: 36.8%
[4]
  IC50: 3.6 µM

## CSCC[C@H](NC(=O)[C@H](Cc1ccc(OS(=O)(=O)O)cc1)NC(=O)[C@@H](N)CC(=O)O)C(=O)NCC(=O)N[C@@H](Cc1c[nH]c2ccccc12)C(=O)N[C@@H](CCSC)C(=O)N[C@@H](CC(=O)O)C(=O)N[C@@H](Cc1ccccc1)C(N)=O [SINCALIDE]
[1]; [13]
  inhibition at 20 µM: 89.3%
[2]
  INH: 96.9%
[3]
  INH: 60.1%

## C[C@H](CCC(=O)NCCS(=O)(=O)O)[C@H]1CC[C@H]2[C@@H]3CC[C@@H]4C[C@H](O)CC[C@]4(C)[C@H]3C[C@H](O)[C@]12C [TAURODEOXYCHOLIC ACID]
[1]; [13]
  inhibition at 20 µM: 81.7%
[2]
  INH: 61.4%
[3]
  INH: 85.3%

## CC[C@]1(O)C[C@H]2CN(CCc3c([nH]c4ccccc34)[C@@](C(=O)OC)(c3cc4c(cc3OC)N(C=O)[C@H]3[C@@](O)(C(=O)OC)[C@H](OC(C)=O)[C@]5(CC)C=CCN6CC[C@]43[C@@H]65)C2)C1 [VINCRISTINE]
[11]
  selectivity ratio: 4
[5]
  INH: 3.9%
[2]
  INH: 59.8%
[3]
  INH: 13%
[4]
  IC50: 44 µM
[12]
  IC50: 11 µM
